Results reported in US20040121946A9, “Inducing cellular immune responses to her2/neu using peptide and nucleic acid compositions” (priority 2002, published 2004).
pIC50: −log10 of the molar value. Read-outs that look alike come from different tables or passages of the source.

What was measured:
DRB1*0101 (DR1) = DRB1*0101 (DR1) (Homo sapiens, UniProt P01903+P01911, A100R/D57E/F55L/F60I/F76Y/I96L/L162R/M171V/P40L/Q125E/R42F/V115G/Y59C); experiment: HLA class II peptide binding assay, purified HLA; conditions: unit not given
DRB1*0301 (DR3) = DRB1*0301 (DR3) (Homo sapiens, UniProt P01903+P01911, A100K/A102G/A103R/A169T/F55Y/I96L/K41T/L162R/M171V/P40S/Q125H/Q178H/Q39Y/R42S/S66N/T106N/T262R/W38E/Y61H); experiment: HLA class II peptide binding assay, purified HLA; conditions: unit not given
DRB1*0401 (DR4w4) = DRB1*0401 (DR4w4) (Homo sapiens, UniProt P01903+P01911, A100K/A169T/F76Y/I96L/K127E/L162R/M171V/N62H/P40V/Q125Y/R42H/S133A/S149N/S66Y/V115G/V209L/W38E); experiment: HLA class II peptide binding assay, purified HLA; conditions: unit not given
DRB1*0701 (DR7) = DRB1*0701 (DR7) (Homo sapiens, UniProt P01903+P01911, A100R/A102G/A103Q/D57E/D86V/E43K/F76Y/K127E/L162R/M171V/P40G/Q125H/Q99D/R33Q/R42Y/R54Q/S133A/S66F/T210M/V115G/Y107V/Y59L/Y89S); experiment: HLA class II peptide binding assay, purified HLA; conditions: unit not given
DRB1*0802 (DR8w2) = DRB1*0802 (DR8w2) (Homo sapiens, UniProt P01903+P01911, A100R/A103L/A169T/F76Y/H45Y/I96F/K41T/L162R/M171V/P40S/Q125H/Q178H/Q39Y/Q99D/R218S/R42G/S66Y/V115G/W38E); experiment: HLA class II peptide binding assay, purified HLA; conditions: for DR8w2 binding data: unit not given
DRB1*1101 (DR5w11) = DRB1*1101 (DR5w11) (Homo sapiens, UniProt P01903+P01911, A100R/A169T/A87E/I96F/K41T/L162R/M171V/P40S/Q125H/Q178H/Q39Y/Q99D/R42S/S66Y/T262R/V115G/W38E); experiment: HLA class II peptide binding assay, purified HLA; conditions: for DR5w11 binding data: unit not given
DRB1*1302 (DR6w19) = DRB1*1302 (DR6w19) (Homo sapiens, UniProt P01903+P01911, A100E/A169T/K41T/L162R/M171V/P40S/Q125H/Q178H/Q39Y/Q99D/R42S/S66N/T262R/V115G/W38E/Y61H); experiment: HLA class II peptide binding assay, purified HLA; conditions: for DR6w19 binding data: unit not given
DRB1*1501 (DR2w2β1) = DRB1*1501 (DR2w2β1) (Homo sapiens, UniProt P01903+P01911); experiment: HLA class II peptide binding assay, purified HLA; conditions: for DR2wB1 binding data: Table XIX, DR supermotif peptides; for DR2wB1 binding data / DR2w2B1 binding data: unit not given; for DR2w2B1 binding data: Table XXa, DR 3a motif peptides
DRB5*0101 (DR2w2β2) = DRB5*0101 (DR2w2β2) (Homo sapiens, UniProt P01903+Q30154); experiment: HLA class II peptide binding assay, purified HLA; conditions: for DR2w2B2 binding data: unit not given
[1] = test system: HLA-DR molecules (DR1, DR4w4, DR7, DRB5*0101, DRB1*1501, DRB1*1101, DRB1*0802, DRB1*1302); experiment: DR supertype cross-reactive binding; set-up: species or system human; conditions: for DR147 Binding / DR147 Cross-binding: number of DR1, DR4w4, DR7 bound; for DR147 Binding: Table XXIX; for DR147 Cross-binding: Table XXVIII; for Broad Binding (5/8): number of the 8 DR alleles bound; for No. of DR Alleles Crossbound: Table XXXI
[2] = Table XIX, DR supermotif peptides
[3] = Table XXa, DR 3a motif peptides

DR1 binding data (DRB1*0101 (DR1); [2]) | DR3 binding data (DRB1*0301 (DR3); [2]) | DR4w4 binding data (DRB1*0401 (DR4w4); [2]) | DR7 binding data (DRB1*0701 (DR7); [2]) | DR8w2 binding data (DRB1*0802 (DR8w2); [2]) | DR5w11 binding data (DRB1*1101 (DR5w11); [2]) | DR6w19 binding data (DRB1*1302 (DR6w19); [2]) | DR2wB1 binding data (DRB1*1501 (DR2w2β1)) | DR2w2B2 binding data (DRB5*0101 (DR2w2β2); [2]) | DR147 Binding [1] | DR147 Cross-binding [1] | Broad Binding (5/8) [1] | No. of DR Alleles Crossbound [1] | Structure (SMILES) | also measured
0.0630 | 0.0098 | −0.0032 | 0.0310 | 0.0010 | −0.0005 | 0.0004 | 0.0047 | 0.0034 | 2 | 2 | 2 |  | CC[C@H](C)[C@H](NC(=O)[C@H](C)NC(=O)[C@@H](NC(=O)[C@@H]1CCCN1C(=O)[C@@H](NC(=O)[C@H](CCCCN)NC(=O)[C@@H](NC(=O)[C@H](CC(N)=O)NC(=O)[C@H](CCC(=O)O)NC(=O)CN)C(C)C)[C@@H](C)CC)C(C)C)C(=O)N[C@@H](CCCCN)C(=O)N[C@H](C(=O)N[C@@H](CC(C)C)C(=O)N[C@@H](CCCNC(=N)N)C(=O)N[C@@H](CCC(=O)O)C(=O)O)C(C)C | 
0.0670 | 0.0976 | 0.0060 | 0.1000 | 0.0051 | 0.0046 | 0.0013 | 0.0540 | 0.0027 | 2 | 2 | 3 |  | CC[C@H](C)[C@H](NC(=O)[C@H](CCSC)NC(=O)[C@H](Cc1ccc(O)cc1)NC(=O)[C@@H](NC(=O)[C@H](CC(=O)O)NC(=O)[C@@H](NC(=O)[C@@H](NC(=O)[C@H](CS)NC(=O)[C@@H](NC(=O)[C@@H]1CCCN1C(=O)[C@@H]1CCCN1C(=O)[C@@H](N)CCC(N)=O)[C@@H](C)CC)[C@@H](C)O)[C@@H](C)CC)C(C)C)C(=O)N[C@@H](CCSC)C(=O)N[C@H](C(=O)N[C@@H](CCCCN)C(=O)O)C(C)C | 
0.1800 | 0.0010 | 0.0670 | 0.2900 | 0.0330 | 0.0100 | 0.0057 | 0.0280 | 0.0740 | 3 | 3 | 6 |  | CC[C@H](C)[C@H](NC(=O)[C@H](CCCNC(=N)N)NC(=O)CNC(=O)[C@H](CCCNC(=N)N)NC(=O)[C@@H](NC(=O)[C@@H](NC(=O)[C@H](CCC(N)=O)NC(=O)[C@H](CC(C)C)NC(=O)[C@H](CC(N)=O)NC(=O)[C@H](CCC(N)=O)NC(=O)[C@H](Cc1ccccc1)NC(=O)[C@@H](NC(=O)[C@H](CO)NC(=O)[C@@H](N)CC(C)C)C(C)C)C(C)C)[C@@H](C)CC)C(=O)N[C@@H](CC(C)C)C(=O)O | 
 |  |  |  |  |  |  |  |  |  |  |  | 3 | CC[C@H](C)[C@H](NC(=O)[C@H](CCCNC(=N)N)NC(=O)[C@H](CCSC)NC(=O)[C@@H](N)CCC(N)=O)C(=O)N[C@@H](CC(C)C)C(=O)N[C@@H](CCCCN)C(=O)N[C@@H](CCC(=O)O)C(=O)N[C@H](C(=O)N[C@@H](CCC(=O)O)C(=O)N[C@@H](CC(C)C)C(=O)N[C@@H](CCCNC(=N)N)C(=O)N[C@@H](CCCCN)C(=O)N[C@H](C(=O)N[C@@H](CCCCN)C(=O)N[C@H](C(=O)O)C(C)C)C(C)C)[C@@H](C)O | DR1 binding data (DRB1*0101 (DR1); [3]): 0.0419; DR3 binding data (DRB1*0301 (DR3); [3]): 0.3200; DR4w4 binding data (DRB1*0401 (DR4w4); [3]): −0.0055; DR7 binding data (DRB1*0701 (DR7); [3]): 0.0130; DR8w2 binding data (DRB1*0802 (DR8w2); [3]): 0.0064; DR5w11 binding data (DRB1*1101 (DR5w11); [3]): 0.0041; DR6w19 binding data (DRB1*1302 (DR6w19); [3]): 0.0008; DR2w2B1 binding data (DRB1*1501 (DR2w2β1)): 0.0150; DR2w2B2 binding data (DRB5*0101 (DR2w2β2); [3]): 0.5900
0.0700 | 0.0021 | 0.0029 | 0.0320 | 0.6400 | 0.4700 | 0.0150 | 0.0110 | 0.0620 | 2 | 2 | 7 | 7 | CC[C@H](C)[C@H](NC(=O)CNC(=O)[C@H](Cc1ccccc1)NC(=O)[C@@H](NC(=O)[C@@H](NC(=O)CNC(=O)[C@H](CC(C)C)NC(=O)[C@@H](N)C(C)C)C(C)C)C(C)C)C(=O)N[C@@H](CC(C)C)C(=O)N[C@H](C(=O)N[C@@H](CCCCN)C(=O)N[C@@H](CCCNC(=N)N)C(=O)N[C@@H](CCCNC(=N)N)C(=O)N[C@@H](CCC(N)=O)C(=O)N[C@@H](CCC(N)=O)C(=O)O)[C@@H](C)CC | 
0.4700 | 0.0010 | 0.3800 | 0.0680 | 0.0220 | 0.0050 | 0.0017 | 0.0280 | 0.0090 | 3 | 3 | 4 |  | CC(C)C[C@H](NC(=O)[C@H](CO)NC(=O)[C@H](C)NC(=O)[C@H](CC(N)=O)NC(=O)[C@@H](NC(=O)[C@@H]1CCCN1C(=O)[C@H](CC(C)C)NC(=O)[C@H](Cc1ccc(O)cc1)NC(=O)[C@@H](NC(=O)[C@H](CC(C)C)NC(=O)[C@H](CCC(=O)O)NC(=O)[C@H](CC(C)C)NC(=O)[C@@H](N)CC(N)=O)[C@@H](C)O)[C@@H](C)O)C(=O)N[C@@H](CO)C(=O)N[C@@H](Cc1ccccc1)C(=O)O | 
0.0340 | 0.3400 | 0.0150 | 0.0230 | 0.1000 | 0.2700 | 0.0430 | 0.0064 | 0.0033 |  |  |  | 4 | CC(C)C[C@H](NC(=O)[C@H](CC(=O)O)NC(=O)[C@H](CCCNC(=N)N)NC(=O)[C@H](Cc1c[nH]cn1)NC(=O)[C@@H](NC(=O)[C@H](CC(C)C)NC(=O)[C@H](CCCNC(=N)N)NC(=O)[C@@H](N)C(C)C)C(C)C)C(=O)N[C@@H](C)C(=O)N[C@@H](C)C(=O)N[C@@H](CCCNC(=N)N)C(=O)N[C@@H](CC(N)=O)C(=O)N[C@H](C(=O)N[C@@H](CC(C)C)C(=O)N[C@H](C(=O)O)C(C)C)C(C)C | DR1 binding data (DRB1*0101 (DR1); [3]): 0.0340; DR3 binding data (DRB1*0301 (DR3); [3]): 0.3400; DR4w4 binding data (DRB1*0401 (DR4w4); [3]): 0.0150; DR7 binding data (DRB1*0701 (DR7); [3]): 0.0230; pIC50 (DRB1*0802 (DR8w2); Table XXXI): 6.31; DR8w2 binding data (DRB1*0802 (DR8w2); [3]): 0.1000; pIC50 (DRB1*1101 (DR5w11); Table XXXI): 7.13; DR5w11 binding data (DRB1*1101 (DR5w11); [3]): 0.2700; pIC50 (DRB1*1302 (DR6w19); Table XXXI): 7.09; DR6w19 binding data (DRB1*1302 (DR6w19); [3]): 0.0430; DR2w2B1 binding data (DRB1*1501 (DR2w2β1)): 0.0064; DR2w2B2 binding data (DRB5*0101 (DR2w2β2); [3]): 0.0033
0.0500 | 0.0010 | 0.2300 | 0.2000 | 0.0570 | 0.0027 | 0.0020 | 0.0029 | 0.0240 | 3 | 3 | 5 | 5 | CSCC[C@H](NC(=O)[C@@H](NC(=O)[C@H](Cc1ccc(O)cc1)NC(=O)[C@H](C)NC(=O)[C@H](CCC(=O)O)NC(=O)[C@@H](N)CC(=O)O)C(C)C)C(=O)N[C@@H](C)C(=O)NCC(=O)N[C@H](C(=O)NCC(=O)N[C@@H](CO)C(=O)N1CCC[C@H]1C(=O)N[C@@H](Cc1ccc(O)cc1)C(=O)N[C@H](C(=O)N[C@@H](CO)C(=O)O)C(C)C)C(C)C | pIC50 (DRB1*0802 (DR8w2); Table XXIX, read-out: DR8w2 nM): 6.07; pIC50 (DRB1*1302 (DR6w19); Table XXIX, read-out: DR6w19 nM): 5.76; pIC50 (DRB1*1501 (DR2w2β1); Table XXIX, read-out: DR2w2β1 nM): 5.50; pIC50 (DRB5*0101 (DR2w2β2); Table XXIX, read-out: DR2w2β2 nM): 6.08
